{"source": "patent US12643935B2", "about": "“PD-L1 binding peptides” (UNIVERSITY OF SOUTHERN CALIFORNIA, priority 2020, dated 2026)", "key": {"hPD-L1 [1]": {"target": "T1, hPD-L1 (Homo sapiens, UniProt Q9NZQ7)", "experiment": "Fluorescence polarization of ROX-labeled SPAM with glycosylated hPD-L1*", "type": "binding", "set-up": "The hPD-L1* vector included amino acids A18-T239, an Avi Tag and a hexahistidine tag; hexahistidine tag; made in house; host or cells: Expi293F", "details": "T=22° C., 100 nM ROX-SPAM, read-out: dissociation constant (KD) for hPD-L1*", "method": "To evaluate the affinity of SPAM for hPD-L1 and hPD-L1*, we measured the KD by fluorescence polarization. […] The resulting values were plotted against the concentration of hPD-L1 or hPD-L1* and fit to a one-site saturation binding model with GraphPad Prism.\nA stock solution of hPD-L1 or hPD-L1* with a 5 μM starting concentration was prepared and serially diluted to concentrations ranging from 5 μM to 2.4 nM. […] The fluorescence polarization of each sample was measured on a Synergy H4 Hybrid Multi-Mode Microplate Reader. Each measurement was carried out in triplicate and the mean value was calculated. The values were fit to a one-site saturation binding model in GraphPad Prism to obtain the corresponding equilibrium dissociation constants."}, "hPD-L1 [2]": {"target": "T1, hPD-L1", "experiment": "Radiolabeled [35S] peptide binding assay on immobilized hPD-L1", "set-up": "designed from A18 to T239 with a methionine added to the N-terminus; hexahistidine tag (C); made in house", "details": "hPD-L1 on streptavidin agarose", "method": "(§1) [^35S]-labeled peptides were translated as described above by including 2 μCi labeled methionine (Perkin Elmer) per 10 pmol of template in the translation reaction. Each peptide was tested with a […] (for X9-library derived peptides) (SEQ ID NO: 11) or a […] (for X17-library derived peptides) (SEQ ID NO: 12) C-terminal sequence. […] The supernatant was removed and was counted. The beads were subsequently washed three times with 1 mL of blocking buffer and the washes were also counted. Finally, the beads were resuspended in 1 mL of blocking buffer and were counted separately. The ratio of the counts remaining on the beads to the total counts added to the binding reaction (the sum of the counts for supernatant, washes, and beads) was calculated to determine the percent bound."}, "human PD-L2 (hPD-L2)": {"target": "T2, human PD-L2 (hPD-L2) (Homo sapiens, UniProt Q9BQ51)", "T2 construct": "The hPD-L2* vector included amino acids L20-T220, an Avi Tag and a hexahistidine tag; hexahistidine tag; made in house; host or cells: Expi293F", "T2 sequence (Q9BQ51 20-220)": "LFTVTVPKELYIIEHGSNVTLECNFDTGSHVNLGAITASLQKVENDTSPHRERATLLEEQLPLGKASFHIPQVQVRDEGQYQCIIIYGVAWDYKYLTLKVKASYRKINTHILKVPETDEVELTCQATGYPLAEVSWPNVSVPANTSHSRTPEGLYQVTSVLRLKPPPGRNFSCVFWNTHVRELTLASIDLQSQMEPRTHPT", "experiment": "Radiolabeled [35S] peptide binding assay on hPD-L2*", "details": "[35S]-labeled peptide", "method": "SPAM Peptide Selectively Binds to hPD-L1. SPAM was also tested for binding specificity towards mouse PD-L1 (mPD-L1) and human PD-L2 (hPD-L2) using radioactive binding assays. SPAM peptide mRNA was translated in vitro in the presence of [^35S]-methionine to generate [^35S]-labeled SPAM peptide.\nas §1"}, "hPD-L1/mPD-1 interaction": {"target": "T3, hPD-L1/mPD-1 interaction (Homo sapiens, UniProt Q9NZQ7)", "T3 construct": "designed from A18 to T239 with a methionine added to the N-terminus; hexahistidine tag (C); made in house; host or cells: E. coli BL21 (DE3)", "T3 sequence (Q9NZQ7 with tags, fused parts or gaps)": "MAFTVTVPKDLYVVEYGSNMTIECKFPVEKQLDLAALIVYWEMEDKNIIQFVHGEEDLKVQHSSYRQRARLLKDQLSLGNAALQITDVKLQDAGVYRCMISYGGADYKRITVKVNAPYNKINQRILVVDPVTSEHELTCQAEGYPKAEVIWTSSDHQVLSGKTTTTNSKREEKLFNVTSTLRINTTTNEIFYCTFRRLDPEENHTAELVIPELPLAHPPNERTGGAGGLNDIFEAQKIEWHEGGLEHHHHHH", "experiment": "ELISA/IP assay of hPD-L1/mPD-1 interaction", "type": "biochemical", "details": "10 μM SPAM", "method": "An ELISA-based activity assay was employed to measure the potency of SPAM peptide inhibition of the hPD-L1/PD-1 interaction (FIG. 4C-D). In this assay, biotinylated hPD-L1 was immobilized on streptavidin magnetic beads and incubated with various concentrations of SPAM peptide, followed by incubation with HA-tagged mPD-1 and detection with anti-HA secondary antibody.\nFor ELISA/IP assays, 20 L of MyOne™ Streptavidin T1 magnetic beads Dynabeads™ (Thermo Fisher Scientific) were loaded with 100 nM biotinylated hPD-L1 in assay buffer (20 mM HEPES-KOH pH 7.5, 150 mM NaCl, 0.2% (v/v) Tween-20, 1 mg/mL BSA and 50 μg/mL tRNA) at 4° C. The beads were subsequently washed and incubated with either DMSO or different concentrations of SPAM peptide (0.1, 1 or 10 μM) in the assay buffer for 1 h at 4° C. followed by adding HA-tagged mPD-1 (100 nM) for 1 h at 4° C. The samples were then washed and incubated with a 1:5,000 dilution of HRP conjugated anti-HA antibody (Pierce HA Antibody, Rockford. Il, USA) for 1 h at 4° C. The beads were washed again and developed with TMB Substrate Kit (Thermo Scientific) for 30 minutes and the reactions stopped by adding 100 L of […] sulfuric acid. The absorbance at 450 nm was measured on a Biotek Synergy H1 Hybrid Multi-Mode Microplate Reader."}, "[3]": {"target": "T4, hPD-L1 expressed on the surface of Chinese hamster ovary (CHO) cells (CHO-hPD-L1) (Homo sapiens, UniProt Q9NZQ7)", "T4 construct": "expressed in transfected cells; host or cells: CHO", "T4 sequence (Q9NZQ7 19-290)": "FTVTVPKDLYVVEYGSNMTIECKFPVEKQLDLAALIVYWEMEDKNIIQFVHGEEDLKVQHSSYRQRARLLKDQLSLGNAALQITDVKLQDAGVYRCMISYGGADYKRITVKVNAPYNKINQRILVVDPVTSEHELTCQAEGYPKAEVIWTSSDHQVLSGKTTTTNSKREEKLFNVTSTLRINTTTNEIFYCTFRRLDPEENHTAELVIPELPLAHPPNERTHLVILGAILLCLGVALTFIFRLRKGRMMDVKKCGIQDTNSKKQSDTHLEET", "experiment": "Antibody competition by flow cytometry on CHO-hPD-L1 cells", "type": "cell-based", "description": "To do this, we measured SPAM peptide inhibition of anti-PD-L1 antibody binding to hPD-L1 expressed on the surface of Chinese hamster ovary (CHO) cells (CHO-hPD-L1). […] Cells were washed again and analyzed by flow cytometry (FIG. 5B-C).\nCells were then washed three times with cold serum free DMEM. Cells were subsequently processed by flow cytometry with a BD FACSCalibur system using the FL1 channel. FlowJo v10.1 was used to gate to the major population and median FL1 fluorescence reported."}}, "note": "Entries after “also recorded” stand apart in the source; their conditions may differ.", "data": [{"compound": "C#CC[C@H](NC(=O)CNC(=O)[C@H](CO)NC(=O)[C@H](C)NC(=O)[C@H](Cc1ccc(O)cc1)NC(=O)[C@H](Cc1c[nH]cn1)NC(=O)[C@H](CC(C)C)NC(=O)[C@@H](NC(=O)[C@H](Cc1c[nH]c2ccccc12)NC(=O)[C@H](Cc1ccccc1)NC(=O)[C@H](CCCCN)NC(=O)[C@H](CC(N)=O)NC(=O)[C@H](CC(C)C)NC(=O)[C@@H](NC(=O)[C@H](Cc1c[nH]cn1)NC(=O)[C@H](CC(=O)O)NC(=O)[C@H](CC(C)C)NC(=O)[C@H](Cc1ccccc1)NC(=O)[C@@H](NC(=O)[C@@H]1CCCN1C(=O)[C@@H](N)CCSC)[C@@H](C)CC)[C@@H](C)CC)[C@@H](C)CC)C(N)=O", "note": "(stereo in doubt) [SPAM]", "values": [{"measurement": "Kd", "setting": "hPD-L1 [1]", "value": 67, "unit": "nM"}, {"measurement": "[35S]-labeled peptide pull-down by immobilized hPD-L1", "setting": "hPD-L1 [2]", "value": "efficiently pulled-down"}, {"measurement": "binding to hPD-L2", "setting": "human PD-L2 (hPD-L2)", "value": "no significant binding; also recorded: essentially no binding"}, {"measurement": "inhibition of mPD-1 binding to hPD-L1", "setting": "hPD-L1/mPD-1 interaction", "value": "almost completely disrupted; also recorded: almost completely inhibits"}, {"measurement": "Fluorescein-Atezolizumab and Fluorescein-Avelumab binding to CHO-hPD-L1 after pre-incubation", "setting": "[3]; pre-incubation 30 min 4° C., 0-20 μM, SPAM effect at 20 μM, 1 nM Atezolizumab, 10 nM Avelumab", "value": "significant decrease"}, {"measurement": "blocking of Fluorescein-16373 and Fluorescein-16377 in CHO-hPD-L1 cells", "setting": "[3]; pre-treatment 0-20 μM, 50 nM antibody", "value": "blocking"}]}]}
